Assays:
Bile acid receptor [1] = biological target: T1, Bile acid receptor (Homo sapiens, UniProt Q96RI1); assay: Agonist activity at human GAL4-FXR-LBD expressed in HEK293T cells assessed as transcriptional activity measured after 16 to 20 hrs by luciferase reporter gene assay; format: cell-based
T1 sequence (Q96RI1 whole entry): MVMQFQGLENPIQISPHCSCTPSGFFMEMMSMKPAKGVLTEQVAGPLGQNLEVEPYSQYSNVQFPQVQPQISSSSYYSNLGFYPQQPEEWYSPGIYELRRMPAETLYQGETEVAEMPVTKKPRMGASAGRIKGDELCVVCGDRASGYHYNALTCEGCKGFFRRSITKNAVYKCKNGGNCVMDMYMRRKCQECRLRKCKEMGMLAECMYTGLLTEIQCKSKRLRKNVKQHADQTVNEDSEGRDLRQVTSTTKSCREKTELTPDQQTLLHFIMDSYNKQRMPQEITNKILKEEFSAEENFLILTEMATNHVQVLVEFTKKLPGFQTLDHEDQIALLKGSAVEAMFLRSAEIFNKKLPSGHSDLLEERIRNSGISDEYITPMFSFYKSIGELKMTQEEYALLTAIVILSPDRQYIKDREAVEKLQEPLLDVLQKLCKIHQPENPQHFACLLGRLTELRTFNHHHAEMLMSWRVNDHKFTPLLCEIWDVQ

Bile acid receptor [2] = biological target: T1, Bile acid receptor; assay: Agonist activity at GST-tagged human FXR-LBD in presence of luorescein-SRC2-2 coactivator peptide by TR-FRET assay

Compound	EC50 (Bile acid receptor [1]) [nM]	EC50 (Bile acid receptor [2]) [nM]
COc1cc(C(=O)O)cc2sc(N3CCN(Cc4c(-c5c(Cl)cccc5Cl)noc4C(C)C)CC3)nc12	147	31
COc1cc(C(=O)O)cc2sc(N3CCN(Cc4c(-c5c(Cl)cccc5Cl)noc4C(C)C)CC34CC4)nc12	1240	–
COc1cc(C(=O)O)cc2sc(C3CCN(Cc4c(-c5c(Cl)cccc5Cl)noc4C(C)C)CC3)nc12	> 5000	200
CC(C)c1onc(-c2c(Cl)cccc2Cl)c1CN1CCN(c2nc3cccc(C(=O)O)c3s2)CC1	> 5000	–
